Results reported in US10154991B2, “Anesthetic compounds and related methods of use” (priority 2012, dated 2018).
Where two headings read alike, the source gives them in different places.

Columns and labels:
ICR mice = experiment: In vivo sedative/hypnotic testing, IV bolus, mice; set-up: species or system mouse; conditions: for Mouse response: IV bolus, doses as in the cell; for ED50: Mus musculus, sedation/hypnosis, IV
Description: (§1) Animals were housed in a dedicated room at the vivarium of VivoPath Inc., located at Redstone Center, 55 Union Street, Worcester, Mass. Housing and care was as specified in the USDA Animal Welfare Act (9 CFR, Parts 1, 2, and 3) and as described in the Guide for the Care and Use of Laboratory Animals from the National Research Council. Environmental conditions of housing rooms are set at the following ranges: temperature: 70±7° F. (22±4° C.), humidity: 50±20%, light cycle: 12-hour light/12-hour dark cycle—lights on at 7 am and off at 7 pm., air changes: ten or more air changes per hour with 100% fresh air. The animals' body weights were measured prior to the first dose on each experimental day.
Adult ICR mice (20-30 g) were purchased from Harlan (South Easton, Mass.). Drugs were administered as intravenous bolus injection in a tail vein.
(§2) Drugs were prepared in either dimethylsulfoxide/saline or saline vehicle or hydroxypropyl-β-cyclodextrin (20% in water, pH 7.0) solution and were administered as an intravenous bolus injection. Animals received 1-4 doses of drug(s) during an experimental day, either ascending doses or different drugs. Doses were administered at intervals equal to the longer of 1 h or 10-times the duration of apparent sedative/hypnotic effects from the previous dose. The sedative/hypnotic properties of the drugs were evaluated by observation of the rats, ranging from mild excitation, mild sedation apparent due to reduced activity, and moderate sedation to hypnosis reflected by loss of righting reflex (LORR, the ability to place rear and hind legs under the body, as well as attenuation/loss of nociceptive reflexes).

Sprague-Dawley rats = experiment: In vivo sedative/hypnotic testing, IV bolus, rats; set-up: species or system rat; conditions: for Rat response: IV bolus, doses as in the cell; for ED50: Rattus norvegicus, sedation/hypnosis, IV
Description: as §1
Adult male Sprague-Dawley rats (225-300 g) were purchased from Harlan (South Easton, Mass.).
as §2

rats = experiment: loss of righting reflexes (LORR) assay after IV bolus; conditions: for hypnotic potency compared with methoxycarbonyl etomidate and etomidate / in vivo duration of action compared with methoxycarbonyl etomidate and etomidate: rat, in vivo; for ED50: Rattus norvegicus, iv, read-out: ED50 ± SD; for death of a rat after dosing: one rat, 20 mg/kg dose; for R/S ED50 ratio: ED50 for LORR of R form over S form
Description: Adult male Sprague-Dawley rats (230-350 gm) were purchased from Charles River Laboratories (Wilmington, Mass.) and housed in the Massachusetts General Hospital Center for Comparative Medicine animal care facility. All drugs were administered through a femoral venous catheter pre-implanted by the vendor prior to animal delivery to our animal care facility.
Immediately after injection, rats were turned supine. […] A stopwatch was used to measure the duration of LORR, which was defined as the time from drug injection until the animal spontaneously righted itself.

[1] = In vitro metabolic half-life of hypnotics in rat blood; assay type: in vitro ADME; conditions: for half-life at 100 μM: Sprague-Dawley, rat; for half-life at 100 μM / metabolic half-life of S form compared with R form: rat blood
Description: On the day of study, whole blood was drawn from the femoral venous catheters of 3 Sprague-Dawley rats (1-2 ml/rat), immediately anticoagulated with heparin (38 U), pooled, and stored on ice. A 1 ml aliquot of blood was warmed at 37° C. for 5 minutes and hypnotic (from a 40 mM in dimethyl sulfoxide stock solution) was added to a final concentration of 100 μM. After the desired incubation time, a 150 μl sample was removed and the metabolic reaction was quenched with 150 μl acetonitrile (Sigma-Aldrich, St. Louis, Mo.). Zero time point samples were prepared by adding 150 μl acetonitrile to blood prior to adding hypnotic (from a 4 mM in dimethyl sulfoxide stock solution). The quenched samples were centrifuged and the resultant supernatant separated and stored at −20° C. until analyzed. Hypnotic concentrations in thawed samples were determined by high performance liquid chromatography using a Varian Prostar system with a 4.6×250 mm Proto 300 C18 column (Nest Group, Southborough, Mass.) with the UV detector set at 240 nm.

[2] = Octanol:water partition coefficients; assay type: physicochemical; conditions: 10 mM Tris pH 7.4; read-out: Octanol/Water Partition Coefficient ± SD (converted)
Description: One mg of each hypnotic was added to 10 ml of water buffered with 10 mM Tris (pH 7.4) and 0.5 ml or 1 ml of octanol. The mixture was stirred overnight and then centrifuged to more fully separate the organic and aqueous phases. The relative hypnotic concentrations in each phase (i.e. the partition coefficient) were determined by high performance liquid chromatography as described for blood.

beagle dogs = conditions: dog, in vivo
Description: A pilot study was conducted in dogs to assess anesthesia induced by cyclopropyl-MOC-metomidate continuous infusion without a bolus induction dosing. Two dogs received cyclopropyl-MOC-metomidate as a 1 mg/kg/min IV infusion without prior bolus administration.
Anesthesia induction was determined using the methods described above.
Etomidate was administered to dogs at IV bolus doses ranging from 0.25 to 2 mg/kg. Anesthesia in the dogs was measured as described above. […] The bolus dose of 2 mg/kg was adopted to induce anesthesia prior to subsequent continuous infusions.
Propofol was administered to dogs as an IV bolus dose of 5 mg/kg to induce anesthesia followed by a continuous infusion at 0.4 mg/kg/min.

[3] = pooled heparinised whole blood, 37° C., 100 μM, read-out: Blood Half-Life (95% CI)
[4] = pooled heparinised whole blood, bound based on the lower limit of quantification, read-out: metabolic half-life in rat blood (converted)

COC(=O)C1(OC(=O)c2cncn2[C@H](C)c2ccccc2)CCC1 [Cyclobutyl-MOC-metomidate, cyclobutyl-methoxycarbonyl metomidate]
Mouse response (ICR mice): Sedation/hypnosis induced at 2, 4 & 8 mg/kg IV
ED50 (ICR mice): 1 to 2 mg/kg
slope of duration of LORR vs logarithm of dose (ICR mice; mice): approximately 7
Rat response (Sprague-Dawley rats): Sedation/hypnosis induced at 1, 2, 4 & 8 mg/kg IV
ED50 (Sprague-Dawley rats): ~1 mg/kg
slope of duration of LORR vs logarithm of dose (Sprague-Dawley rats; rats): ~5
hypnotic potency compared with methoxycarbonyl etomidate and etomidate (rats): nearly an order of magnitude higher than that of methoxycarbonyl etomidate and similar to that of etomidate
in vivo duration of action compared with methoxycarbonyl etomidate and etomidate (rats): intermediate between those of methoxycarbonyl etomidate and etomidate

COC(=O)C[C@@H](C)OC(=O)c1cncn1[C@H](C)c1ccccc1 [β-(R)- methyl- methoxycarbonyl etomidate, β-R-methyl-MOC-etomidate]
half-life at 100 μM [1, 3]: 54.6 s
logD [2]: 2.7
ED50 (rats): 3.5 ± 0.6 mg/kg

cyclopentyl-methoxycarbonyl metomidate
hypnotic potency compared with methoxycarbonyl etomidate and etomidate (rats): nearly an order of magnitude higher than that of methoxycarbonyl etomidate and similar to that of etomidate
in vivo duration of action compared with methoxycarbonyl etomidate and etomidate (rats): intermediate between those of methoxycarbonyl etomidate and etomidate

COC(=O)C1(OC(=O)c2cncn2[C@H](C)c2ccccc2)CCCCC1
Rat response (Sprague-Dawley rats): Mildly sedative at 4 mg/kg Hypnotic at 8 mg/kg - deep and long-acting

COC(=O)[C@@H](OC(=O)c1cncn1[C@H](C)c1ccccc1)C(C)C [R-isopropyl-methoxycarbonyl metomidate]
half-life at 100 μM [1, 3]: 9 s
logD [2]: 3.58
ED50 (rats): 3.6 ± 0.8 mg/kg
death of a rat after dosing (rats): died after receiving a 20 mg/kg dose

COC(=O)C(OC(=O)c1cncn1[C@H](C)c1ccccc1)C1CC1 (stereo partly shown)
Mouse response (ICR mice): Sedation/hypnosis induced at 8, 16 & 32 mg/kg IV
ED50 (ICR mice): ~8 mg/kg

C[C@H](c1ccccc1)n1cncc1C(=O)OC1(C(=O)OC2COC2)CC1
Mouse response (ICR mice): No effect at 4 mg/kg IV

COC(=O)COC(=O)c1cncn1[C@H](C)c1ccccc1 [Methoxycarbonyl metomidate, methoxycarbonyl metomidate]
half-life at 100 μM [1, 3]: < 1.8 s
half-life at 100 μM [1, 4]: < 2 s
logD [2]: 2.2
ED50 (rats): 11.1 ± 0.8 mg/kg

COC(=O)C1(OC(=O)c2cncn2[C@H](C)c2ccccc2)CC1 [drawing 83]
Mouse response (ICR mice): Sedation/hypnosis induced at 2 & 4 mg/kg IV
ED50 (ICR mice): ~0.7 mg/kg
Rat response (Sprague-Dawley rats): Sedation/hypnosis induced at 2 & 4 mg/kg IV
ED50 (Sprague-Dawley rats): ~0.7 mg/kg

COC(=O)C(OC(=O)c1cncn1C(C)c1ccccc1)C(C)C (stereo not shown) [isopropyl-methoxycarbonyl metomidate]
R/S ED50 ratio (rats): 3.0

COC(=O)C[C@H](C)OC(=O)c1cncn1[C@H](C)c1ccccc1 [β-(S)- methyl- methoxycarbonyl etomidate, β-S-methyl-MOC-etomidate]
half-life at 100 μM [1, 3]: 43.2 s
logD [2]: 2.68
ED50 (rats): 2.9 ± 0.3 mg/kg

COC(=O)C(C)(C)OC(=O)c1cncn1[C@H](C)c1ccccc1 [Dimethyl- methoxycarbonyl metomidate, dimethyl-methoxycarbonyl metomidate]
in vitro metabolic half-life compared with methoxycarbonyl etomidate and etomidate [1]: intermediate between those of methoxycarbonyl etomidate and etomidate
half-life at 100 μM ([1]; 37° C., 100 μM, read-out: Blood Half-Life (95% CI)): 522 s
logD [2]: 2.82
lethal dose relative to ED50 for LORR (rats; 20 mg/kg dose vs ED50): 28 fold
ED50 (rats): 0.72 ± 0.16 mg/kg
death of a rat after dosing (rats): died
hypnotic potency compared with methoxycarbonyl etomidate and etomidate (rats): nearly an order of magnitude higher than that of methoxycarbonyl etomidate and similar to that of etomidate
in vivo duration of action compared with methoxycarbonyl etomidate and etomidate (rats): intermediate between those of methoxycarbonyl etomidate and etomidate

CCOC(=O)c1cncn1[C@H](C)c1ccccc1 [drawing 81]
Mouse response (ICR mice): Sedation/hypnosis induced at 2 & 4 mg/kg IV
ED50 (ICR mice): ~0.7 mg/kg
Rat response (Sprague-Dawley rats): Sedation/hypnosis induced at 2 & 4 mg/kg IV
ED50 (Sprague-Dawley rats): ~0.7 mg/kg

COC(=O)[C@H](OC(=O)c1cncn1[C@H](C)c1ccccc1)C(C)C [S-isopropyl-methoxycarbonyl metomidate]
half-life at 100 μM [1, 3]: 930 s
metabolic half-life of S form compared with R form [1]: two orders of magnitude longer
logD [2]: 3.46
ED50 (rats): 1.2 ± 0.19 mg/kg
Slope of Duration vs. Log Dose ± SD (rats; duration of LORR vs log dose, rats): 12.1±1.1 min/(log mg/kg)

COC(=O)C1(OC(=O)c2cncn2[C@H](C)c2ccccc2)CCOCC1
Rat response (Sprague-Dawley rats): Mildly sedative at 16 mg/kg More profound short-acting sedation at 32 mg/kg

COC(=O)[C@@H](C)OC(=O)c1cncn1[C@H](C)c1ccccc1 [(R)-methyl- methoxycarbonyl metomidate, R-methyl-methoxycarbonyl metomidate]
half-life at 100 μM [1, 3]: < 1.8 s
half-life at 100 μM [1, 4]: < 2 s
logD [2]: 2.58
ED50 (rats): 9.6 ± 1.9 mg/kg

methyl-methoxycarbonyl metomidate
R/S ED50 ratio (rats): 2.7

COC(=O)c1cncn1[C@H](C)c1ccccc1 [Metomidate, reference compound]
half-life at 100 μM [1, 3]: 8580 s
logD [2]: 2.58
ED50 (rats): 0.73 ± 0.5 mg/kg

COC(=O)[C@H](C)OC(=O)c1cncn1[C@H](C)c1ccccc1 [(S)-methyl- methoxycarbonyl metomidate, S-methyl-methoxycarbonyl metomidate]
half-life at 100 μM [1, 3]: 8.4 s
metabolic half-life of S form compared with R form [1]: at least four-fold longer
logD [2]: 2.52
ED50 (rats): 3.5 ± 0.4 mg/kg

COC(=O)c1ccccc1OC(=O)c1cncn1[C@H](C)c1ccccc1
Mouse response (ICR mice): Mild excitation but no sedation at 2, 4 or 8 mg/kg IV

COC(=O)[C@@H](C)COC(=O)c1cncn1[C@H](C)c1ccccc1 [α-(S)- methyl- methoxycarbonyl etomidate, α-S-methyl-methoxycarbonyl etomidate]
half-life at 100 μM [1, 3]: 45.6 s
metabolic half-life of S form compared with R form [1]: at least four-fold longer
logD [2]: 2.72
ED50 (rats): 3.1 ± 0.4 mg/kg

CC(C)c1cccc(C(C)C)c1O [Propofol]
emergence from anesthesia after the end of infusion (beagle dogs): approximately 15 minutes
recovery of normal behavior after infusion (beagle dogs): ≥ 30 min
recovery time relative to cyclopropyl-MOC-metomidate infusion of the same duration (beagle dogs): approximately 3 fold

COC(=O)C(C)(C)COC(=O)c1cncn1[C@H](C)c1ccccc1 [α-dimethyl- methoxycarbonyl etomidate, α-dimethyl-MOC-etomidate]
half-life at 100 μM [1, 3]: 156 s
logD [2]: 3.35
ED50 (rats): 2.4 ± 1 mg/kg

COC(=O)C1(OC(=O)c2cncn2[C@H](C)c2ccccc2)CCCC1
Rat response (Sprague-Dawley rats): Sedative at 1 & 2 mg/kg, with rear paws out but head and forepaws mobile Hypnotic at 4 & 8 mg/kg, quite long-acting

COC(=O)CC(C)(C)OC(=O)c1cncn1[C@H](C)c1ccccc1 [β-dimethyl- methoxycarbonyl etomidate, β-dimethyl-MOC-etomidate]
half-life at 100 μM [1, 3]: 1400 s
logD [2]: 3.2
ED50 (rats): 1.9 ± 0.3 mg/kg

β-methyl-methoxycarbonyl etomidate
R/S ED50 ratio (rats): 1.2

COC(=O)C1(OC(=O)c2cncn2[C@H](C)c2ccccc2)CCNCC1
Rat response (Sprague-Dawley rats): No effect apparent at 4, 8 & 16 mg/kg

COC(=O)C1(OC(=O)c2cncn2[C@H](C)c2ccccc2)CCN(C)CC1
Rat response (Sprague-Dawley rats): No effect apparent at 4, 8 & 16 mg/kg

α-methyl-methoxycarbonyl etomidate
R/S ED50 ratio (rats): 1.7
